ChEMBL document CHEMBL4879554, “Data for DCP probe GNE-2256” (2021)
Activity calls are given as the source filed them. The calls are words filed in the database; no cut-off is given here.

Assays:
[1] = biological target: Serine/threonine-protein kinase Sgk2 (Homo sapiens) (UniProt Q9HBY8); test: SGK2 Kinase panel; conditions: Compound concentration 1.0 uM
[2] = biological target: Angiopoietin-1 receptor (Homo sapiens) (UniProt Q02763); test: Tie2 Kinase panel; conditions: Compound concentration 1.0 uM
[3] = biological target: Tyrosine-protein kinase Lyn (Homo sapiens) (UniProt P07948); test: Lyn Kinase panel; conditions: Compound concentration 1.0 uM
[4] = biological target: Mast/stem cell growth factor receptor Kit (Homo sapiens) (UniProt P10721); test: Kit Kinase panel; conditions: Compound concentration 1.0 uM
[5] = biological target: Serine/threonine-protein kinase DCLK2 (Homo sapiens) (UniProt Q8N568); test: DCAMKL2 Kinase panel; conditions: Compound concentration 1.0 uM
[6] = biological target: MAP/microtubule affinity-regulating kinase 3 (Homo sapiens) (UniProt P27448); test: MARK3 Kinase panel; conditions: Compound concentration 1.0 uM
[7] = biological target: Serine/threonine-protein kinase N1 (Homo sapiens) (UniProt Q16512); test: PRK1 Kinase panel; conditions: Compound concentration 1.0 uM
[8] = biological target: Inhibitor of nuclear factor kappa-B kinase subunit epsilon (Homo sapiens) (UniProt Q14164); test: IKK_epsilon Kinase panel; conditions: Compound concentration 1.0 uM
Sequence of Inhibitor of nuclear factor kappa-B kinase subunit epsilon (Homo sapiens) (Q14164 whole entry): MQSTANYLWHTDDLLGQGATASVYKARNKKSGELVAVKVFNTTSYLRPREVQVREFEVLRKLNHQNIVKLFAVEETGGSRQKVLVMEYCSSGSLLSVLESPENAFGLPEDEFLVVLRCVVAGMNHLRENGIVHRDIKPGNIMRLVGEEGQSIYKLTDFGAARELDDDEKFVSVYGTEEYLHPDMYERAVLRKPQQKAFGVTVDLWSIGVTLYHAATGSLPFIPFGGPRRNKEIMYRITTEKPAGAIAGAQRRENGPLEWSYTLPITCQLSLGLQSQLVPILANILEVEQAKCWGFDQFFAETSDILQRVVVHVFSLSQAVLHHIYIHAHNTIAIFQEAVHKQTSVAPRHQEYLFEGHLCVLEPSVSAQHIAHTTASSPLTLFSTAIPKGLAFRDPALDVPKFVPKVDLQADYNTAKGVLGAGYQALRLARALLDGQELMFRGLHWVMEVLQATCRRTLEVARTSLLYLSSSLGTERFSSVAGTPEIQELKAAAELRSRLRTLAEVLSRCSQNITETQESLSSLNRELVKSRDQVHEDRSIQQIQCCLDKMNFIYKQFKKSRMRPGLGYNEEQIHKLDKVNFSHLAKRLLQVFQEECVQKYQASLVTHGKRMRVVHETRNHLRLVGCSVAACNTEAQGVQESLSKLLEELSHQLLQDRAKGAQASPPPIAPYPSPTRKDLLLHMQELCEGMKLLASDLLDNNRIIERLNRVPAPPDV

[9] = biological target: 5-hydroxytryptamine receptor 1E (Homo sapiens) (UniProt P28566); conditions: Compound concentration 10.0 uM
[10] = biological target: Casein kinase I isoform gamma-1 (Homo sapiens) (UniProt Q9HCP0); test: CK1_gamma1 Kinase panel; conditions: Compound concentration 1.0 uM
[11] = biological target: Calcium/calmodulin-dependent protein kinase type 1D (Homo sapiens) (UniProt Q8IU85); test: CaMKI_delta Kinase panel; conditions: Compound concentration 1.0 uM
[12] = IFNalpha human whole blood assay; type: tissue-based
[13] = biological target: Tyrosine-protein kinase Tec (Homo sapiens) (UniProt P42680); test: TEC Kinase panel; conditions: Compound concentration 1.0 uM
[14] = biological target: TGF-beta receptor type-1 (Homo sapiens) (UniProt P36897); test: TGFBR1 Kinase panel; conditions: Compound concentration 1.0 uM
[15] = biological target: Dual specificity tyrosine-phosphorylation-regulated kinase 3 (Homo sapiens) (UniProt O43781); test: DYRK3 Kinase panel; conditions: Compound concentration 1.0 uM
[16] = biological target: Serine/threonine-protein kinase 33 (Homo sapiens) (UniProt Q9BYT3); test: STK33 Kinase panel; conditions: Compound concentration 1.0 uM
Sequence of Serine/threonine-protein kinase 33 (Homo sapiens) (Q9BYT3 whole entry, looked up): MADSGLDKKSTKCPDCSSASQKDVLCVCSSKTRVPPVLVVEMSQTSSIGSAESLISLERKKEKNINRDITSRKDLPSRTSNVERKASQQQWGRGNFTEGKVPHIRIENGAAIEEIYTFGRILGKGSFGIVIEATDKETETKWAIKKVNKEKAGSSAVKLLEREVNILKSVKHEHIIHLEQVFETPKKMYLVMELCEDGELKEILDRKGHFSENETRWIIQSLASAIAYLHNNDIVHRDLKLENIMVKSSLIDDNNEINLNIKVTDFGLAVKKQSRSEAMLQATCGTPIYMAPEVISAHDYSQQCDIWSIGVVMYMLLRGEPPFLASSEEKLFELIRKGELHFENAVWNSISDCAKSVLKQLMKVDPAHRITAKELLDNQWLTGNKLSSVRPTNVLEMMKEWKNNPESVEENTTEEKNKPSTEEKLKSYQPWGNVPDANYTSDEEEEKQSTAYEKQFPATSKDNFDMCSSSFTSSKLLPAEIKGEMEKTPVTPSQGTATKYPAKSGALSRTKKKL

[17] = biological target: Cyclin-dependent kinase 2/cyclin A (Homo sapiens) (UniProt P24941+P20248+P78396); test: CDK2/cyclinA Kinase panel; type: protein-complex assay; conditions: Compound concentration 1.0 uM
[18] = biological target: Sodium-dependent noradrenaline transporter (Homo sapiens) (UniProt P23975); conditions: Compound concentration 10.0 uM
[19] = biological target: Tyrosine-protein kinase SYK (Homo sapiens) (UniProt P43405); test: Syk Kinase panel; conditions: Compound concentration 1.0 uM
[20] = biological target: Tyrosine-protein kinase Srms (Homo sapiens) (UniProt Q9H3Y6); test: Srm Kinase panel; conditions: Compound concentration 1.0 uM
[21] = biological target: Dual specificity protein kinase CLK3 (Homo sapiens) (UniProt P49761); test: CLK3 Kinase panel; conditions: Compound concentration 1.0 uM
[22] = biological target: Tyrosine-protein kinase TXK (Homo sapiens) (UniProt P42681); test: TXK Kinase panel; conditions: Compound concentration 1.0 uM
[23] = biological target: Insulin receptor-related protein (Homo sapiens) (UniProt P14616); test: IRR Kinase panel; conditions: Compound concentration 1.0 uM
[24] = biological target: Focal adhesion kinase 1 (Homo sapiens) (UniProt Q05397); test: FAK Kinase panel; conditions: Compound concentration 1.0 uM
[25] = biological target: Cytoplasmic tyrosine-protein kinase BMX (Homo sapiens) (UniProt P51813); test: Bmx Kinase panel; conditions: Compound concentration 1.0 uM
[26] = biological target: G protein-coupled receptor kinase 3 (Homo sapiens) (UniProt P35626); test: GRK3 Kinase panel; conditions: Compound concentration 1.0 uM
[27] = biological target: 5'-AMP-activated protein kinase catalytic subunit alpha-1 (Homo sapiens) (UniProt Q13131); test: PRKAA1 Kinase panel; conditions: Compound concentration 1.0 uM
Sequence of 5'-AMP-activated protein kinase catalytic subunit alpha-1 (Homo sapiens) (Q13131 whole entry, looked up): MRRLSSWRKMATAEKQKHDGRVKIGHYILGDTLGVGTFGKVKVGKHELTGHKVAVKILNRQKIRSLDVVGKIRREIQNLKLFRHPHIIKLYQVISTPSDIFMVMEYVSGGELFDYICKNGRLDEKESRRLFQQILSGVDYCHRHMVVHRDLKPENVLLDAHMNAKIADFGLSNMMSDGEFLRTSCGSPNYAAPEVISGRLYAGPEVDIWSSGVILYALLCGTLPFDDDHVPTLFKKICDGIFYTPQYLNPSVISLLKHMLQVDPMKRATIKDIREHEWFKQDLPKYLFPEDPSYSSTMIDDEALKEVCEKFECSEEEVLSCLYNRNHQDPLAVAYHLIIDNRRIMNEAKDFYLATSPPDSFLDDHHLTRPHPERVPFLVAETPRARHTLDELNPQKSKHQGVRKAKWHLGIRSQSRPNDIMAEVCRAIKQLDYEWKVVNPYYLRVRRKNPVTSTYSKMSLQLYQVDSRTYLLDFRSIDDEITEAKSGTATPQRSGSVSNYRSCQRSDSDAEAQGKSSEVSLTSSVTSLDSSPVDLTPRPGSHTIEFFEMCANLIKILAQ

[28] = biological target: D(4) dopamine receptor (Homo sapiens) (UniProt P21917); conditions: Compound concentration 10.0 uM
[29] = biological target: CDK8/Cyclin C (Homo sapiens) (UniProt P49336+P24863); test: CDK8/cyclinC Kinase panel; type: protein-complex assay; conditions: Compound concentration 1.0 uM
[30] = biological target: Beta-3 adrenergic receptor (Homo sapiens) (UniProt P13945); conditions: Compound concentration 10.0 uM
[31] = R848-induced IL-6 production in human whole blood; type: tissue-based
[32] = biological target: Wee1-like protein kinase (Homo sapiens) (UniProt P30291); test: WEE1 Kinase panel; conditions: Compound concentration 1.0 uM
Sequence of Wee1-like protein kinase (Homo sapiens) (P30291 whole entry, looked up): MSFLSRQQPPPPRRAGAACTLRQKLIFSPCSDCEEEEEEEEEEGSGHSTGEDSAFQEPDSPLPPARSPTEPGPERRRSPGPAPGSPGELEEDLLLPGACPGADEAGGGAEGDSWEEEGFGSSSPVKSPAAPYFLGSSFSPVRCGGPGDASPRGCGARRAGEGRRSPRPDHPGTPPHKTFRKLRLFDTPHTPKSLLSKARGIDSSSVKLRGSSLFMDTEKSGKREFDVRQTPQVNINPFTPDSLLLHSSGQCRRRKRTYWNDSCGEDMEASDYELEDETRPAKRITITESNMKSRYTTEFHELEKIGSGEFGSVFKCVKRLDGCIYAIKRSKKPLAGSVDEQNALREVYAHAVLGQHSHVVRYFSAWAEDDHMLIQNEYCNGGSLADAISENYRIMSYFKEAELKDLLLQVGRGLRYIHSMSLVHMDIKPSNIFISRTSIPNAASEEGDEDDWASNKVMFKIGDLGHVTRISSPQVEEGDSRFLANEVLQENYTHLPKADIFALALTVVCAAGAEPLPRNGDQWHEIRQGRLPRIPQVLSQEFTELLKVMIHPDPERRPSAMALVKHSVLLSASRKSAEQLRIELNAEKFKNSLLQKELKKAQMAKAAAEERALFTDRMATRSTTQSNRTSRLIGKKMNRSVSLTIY

[33] = biological target: 5-hydroxytryptamine receptor 6 (Homo sapiens) (UniProt P50406); conditions: Compound concentration 10.0 uM
[34] = biological target: Muscarinic acetylcholine receptor M5 (Homo sapiens) (UniProt P08912); conditions: Compound concentration 10.0 uM
[35] = biological target: Tyrosine-protein kinase JAK1 (Homo sapiens, UniProt P23458); test: JAK1 Kinase panel
Sequence of Tyrosine-protein kinase JAK1 (P23458 whole entry): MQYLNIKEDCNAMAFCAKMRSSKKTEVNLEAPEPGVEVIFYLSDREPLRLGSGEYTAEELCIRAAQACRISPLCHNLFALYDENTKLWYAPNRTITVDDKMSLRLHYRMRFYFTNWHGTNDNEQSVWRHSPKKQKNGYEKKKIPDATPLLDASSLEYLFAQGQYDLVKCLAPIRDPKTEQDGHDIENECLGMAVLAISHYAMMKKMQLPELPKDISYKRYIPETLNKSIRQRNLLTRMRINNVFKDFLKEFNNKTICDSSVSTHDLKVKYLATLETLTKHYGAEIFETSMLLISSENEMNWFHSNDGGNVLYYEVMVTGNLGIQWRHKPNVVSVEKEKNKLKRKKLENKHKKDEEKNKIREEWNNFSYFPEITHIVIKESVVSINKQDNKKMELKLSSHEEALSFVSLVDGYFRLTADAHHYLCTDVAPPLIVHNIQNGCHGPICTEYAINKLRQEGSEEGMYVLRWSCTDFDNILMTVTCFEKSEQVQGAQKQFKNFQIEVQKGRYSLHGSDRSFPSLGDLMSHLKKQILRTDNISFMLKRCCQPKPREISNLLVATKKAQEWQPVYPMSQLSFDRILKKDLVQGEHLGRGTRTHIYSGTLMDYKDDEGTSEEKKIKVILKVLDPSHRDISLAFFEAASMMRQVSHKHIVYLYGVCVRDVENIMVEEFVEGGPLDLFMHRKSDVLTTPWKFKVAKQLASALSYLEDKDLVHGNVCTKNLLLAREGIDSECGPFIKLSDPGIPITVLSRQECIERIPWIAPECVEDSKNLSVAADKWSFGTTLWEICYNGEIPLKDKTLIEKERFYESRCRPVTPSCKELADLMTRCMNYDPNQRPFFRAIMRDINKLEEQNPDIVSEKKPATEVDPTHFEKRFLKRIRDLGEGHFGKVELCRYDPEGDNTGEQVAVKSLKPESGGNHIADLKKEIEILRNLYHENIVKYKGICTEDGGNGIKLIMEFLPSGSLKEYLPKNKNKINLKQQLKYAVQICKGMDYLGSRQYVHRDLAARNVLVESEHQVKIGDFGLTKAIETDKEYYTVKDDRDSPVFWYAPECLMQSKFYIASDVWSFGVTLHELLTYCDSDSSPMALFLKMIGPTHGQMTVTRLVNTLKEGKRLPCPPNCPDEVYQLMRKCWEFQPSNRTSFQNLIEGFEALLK

[36] = biological target: Mitogen-activated protein kinase kinase kinase 2 (Homo sapiens) (UniProt Q9Y2U5); test: MEKK2 Kinase panel; conditions: Compound concentration 1.0 uM
[37] = biological target: Mitogen-activated protein kinase kinase kinase kinase 1 (Homo sapiens) (UniProt Q92918); test: HPK1 Kinase panel; conditions: Compound concentration 1.0 uM
[38] = biological target: Serine/threonine-protein kinase 3 (Homo sapiens) (UniProt Q13188); test: MST2 Kinase panel; conditions: Compound concentration 1.0 uM
[39] = biological target: Serine/threonine-protein kinase B-raf (Homo sapiens) (UniProt P15056); test: B-Raf Kinase panel; conditions: Compound concentration 1.0 uM
[40] = biological target: Myosin light chain kinase, smooth muscle (Homo sapiens) (UniProt Q15746); test: MYLK(smMLCK) Kinase panel; conditions: Compound concentration 1.0 uM
[41] = biological target: Serine/threonine-protein kinase PAK 6 (Homo sapiens) (UniProt Q9NQU5); test: PAK6 Kinase panel; conditions: Compound concentration 1.0 uM
[42] = biological target: Vascular endothelial growth factor receptor 1 (Homo sapiens) (UniProt P17948); test: Flt1 Kinase panel; conditions: Compound concentration 1.0 uM
[43] = biological target: D(3) dopamine receptor (Homo sapiens) (UniProt P35462); conditions: Compound concentration 10.0 uM
[44] = biological target: Tyrosine-protein kinase JAK2 (Homo sapiens, UniProt O60674); test: JAK2 Kinase panel
Sequence of Tyrosine-protein kinase JAK2 (O60674 whole entry): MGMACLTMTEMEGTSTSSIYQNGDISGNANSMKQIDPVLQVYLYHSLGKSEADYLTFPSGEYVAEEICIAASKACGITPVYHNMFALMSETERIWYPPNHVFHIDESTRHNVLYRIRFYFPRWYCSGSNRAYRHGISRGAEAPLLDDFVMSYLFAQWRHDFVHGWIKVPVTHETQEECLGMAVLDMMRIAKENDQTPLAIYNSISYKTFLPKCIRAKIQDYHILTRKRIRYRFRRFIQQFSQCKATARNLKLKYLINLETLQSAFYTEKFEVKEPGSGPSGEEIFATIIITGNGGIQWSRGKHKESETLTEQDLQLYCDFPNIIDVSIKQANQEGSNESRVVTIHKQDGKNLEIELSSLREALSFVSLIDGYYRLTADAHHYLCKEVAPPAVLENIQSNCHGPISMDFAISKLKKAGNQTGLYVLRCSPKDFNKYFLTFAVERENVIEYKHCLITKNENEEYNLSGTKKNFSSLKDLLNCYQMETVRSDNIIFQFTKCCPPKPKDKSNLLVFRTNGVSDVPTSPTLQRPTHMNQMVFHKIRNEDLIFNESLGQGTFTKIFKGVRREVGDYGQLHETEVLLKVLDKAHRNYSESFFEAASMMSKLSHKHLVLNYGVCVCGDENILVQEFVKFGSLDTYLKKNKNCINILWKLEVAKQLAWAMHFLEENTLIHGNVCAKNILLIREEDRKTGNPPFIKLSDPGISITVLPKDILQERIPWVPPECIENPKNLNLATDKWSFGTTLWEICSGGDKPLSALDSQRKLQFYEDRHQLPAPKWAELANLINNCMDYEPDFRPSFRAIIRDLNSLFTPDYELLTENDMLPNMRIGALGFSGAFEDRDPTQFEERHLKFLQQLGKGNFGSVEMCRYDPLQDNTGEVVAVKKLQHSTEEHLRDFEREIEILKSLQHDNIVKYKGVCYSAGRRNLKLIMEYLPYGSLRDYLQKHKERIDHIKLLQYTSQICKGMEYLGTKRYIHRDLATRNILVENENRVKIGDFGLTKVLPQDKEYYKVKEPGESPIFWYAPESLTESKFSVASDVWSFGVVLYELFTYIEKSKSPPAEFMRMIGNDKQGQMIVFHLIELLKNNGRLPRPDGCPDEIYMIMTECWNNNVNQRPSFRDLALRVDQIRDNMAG

[45] = biological target: Serine/threonine-protein kinase 24 (Homo sapiens) (UniProt Q9Y6E0); test: MST3 Kinase panel; conditions: Compound concentration 1.0 uM
[46] = biological target: Protein kinase C eta type (Homo sapiens) (UniProt P24723); test: PKC_eta Kinase panel; conditions: Compound concentration 1.0 uM
[47] = biological target: Calcium/calmodulin-dependent protein kinase kinase 1 (Homo sapiens) (UniProt Q8N5S9); test: CAMKK1 Kinase panel; conditions: Compound concentration 1.0 uM
[48] = biological target: Rho-associated protein kinase 2 (Homo sapiens) (UniProt O75116); test: ROCK2 Kinase panel; conditions: Compound concentration 1.0 uM
[49] = biological target: Activin receptor type-1B (Homo sapiens) (UniProt P36896); test: ACVR1B Kinase panel; conditions: Compound concentration 1.0 uM
[50] = biological target: Protein kinase C theta type (Homo sapiens) (UniProt Q04759); test: PKC_theta Kinase panel; conditions: Compound concentration 1.0 uM
[51] = biological target: Ribosomal protein S6 kinase alpha-5 (Homo sapiens) (UniProt O75582); test: MSK1 Kinase panel; conditions: Compound concentration 1.0 uM
[52] = biological target: Serine/threonine-protein kinase PLK1 (Homo sapiens) (UniProt P53350); test: PLK1 Kinase panel; conditions: Compound concentration 1.0 uM
[53] = biological target: Insulin-like growth factor 1 receptor (Homo sapiens) (UniProt P08069); test: IGF1R Kinase panel; conditions: Compound concentration 1.0 uM
[54] = biological target: MAP kinase-interacting serine/threonine-protein kinase 1 (Homo sapiens) (UniProt Q9BUB5); test: MKNK1 Kinase panel; conditions: Compound concentration 1.0 uM
[55] = biological target: G protein-coupled receptor kinase 5 (Homo sapiens) (UniProt P34947); test: GRK5 Kinase panel; conditions: Compound concentration 1.0 uM

`CC(C)(O)[C@H](F)CN1Cc2cc(NC(=O)c3cnn4cccnc34)c(N3CCOCC3)cc2C1=O` showed an inhibition [1] of 5.5%, an inhibition [2] of 6.5% and an inhibition [3] of 55.3%. For the same compound, the inhibition [4] was 3%, the inhibition [5] was 0.5% and the inhibition [6] was 8.5%. The inhibition [7] was 0.5%, the inhibition [8] was -0.5% and the inhibition [9] was 1.48%. The inhibition [10] was -3.5%, the inhibition [11] was 2% and the IC50 [12] was 0.29 µM (active). For the same compound, the inhibition [13] was 0.5%, the inhibition [14] was 0.5% and the inhibition [15] was 2%. For the same compound, the inhibition [16] was 3.5%, the inhibition [17] was 3% and the inhibition [18] was 2.12%. For the same compound, the inhibition [19] was 9%, the inhibition [20] was 16% and the inhibition [21] was 10%. For the same compound, the inhibition [22] was 34%, the inhibition [23] was 18% and the inhibition [24] was 19.5%. For the same compound, the inhibition [25] was 33.3%, the inhibition [26] was -1% and the inhibition [27] was 5.5%. It also gave an inhibition [28] of -9.22%, an inhibition [29] of 13.5% and an inhibition [30] of 11.2%. The IC50 [31] was 0.19 µM (active), the inhibition [32] was 5.5% and the inhibition [33] was 7.46%. It also gave an inhibition [34] of -6.7%, an IC50 [35] of 0.282 µM and an inhibition ([35]; Compound concentration 1.0 uM) of 83.5%. The inhibition [36] was 3.5%, the inhibition [37] was 13.3% and the inhibition [38] was 7%. For the same compound, the inhibition [39] was -0.5%, the inhibition [40] was 12% and the inhibition [41] was 7%. It also gave an inhibition [42] of -1%, an inhibition [43] of -1.84% and an IC50 [44] of 0.486 µM. It also gave an inhibition ([44]; Compound concentration 1.0 uM) of 80.5%, an inhibition [45] of 5.5% and an inhibition [46] of 8%. The inhibition [47] was 3.5%, the inhibition [48] was 6% and the inhibition [49] was -1%. For the same compound, the inhibition [50] was 1%, the inhibition [51] was -2% and the inhibition [52] was -2%. The inhibition [53] was 11.5%, the inhibition [54] was -6% and the inhibition [55] was -2%.
